Results on twelve molecules are retold here after ChEMBL document CHEMBL3872207, “Aromatic heterocyclic esters of podophyllotoxin exert anti-MDR activity in human leukemia K562/ADR cells via ROS/MAPK signaling pathways” (Eur J Med Chem, 2016).

Assay [1] in a line: Antiproliferative activity against human K562 cells measured after 72 hrs by CCK8 assay. To be noted: K562, 72 h. The format is functional, cell-based.
In a further assay the test system is K562. Description: Resistance index, ratio of IC50 for human K562/ADR cells to IC50 for human K562 cells. The format is functional.
The nature of assay [2]: Antiproliferative activity against human K562/ADR cells measured after 72 hrs by CCK8 assay. Format: functional, cell-based.
A short description of assay [3]: Potency index, ratio of etoposide IC50 to compound IC50 for antiproliferative activity against human K562/ADR cells. Format: functional.
Assay [4] in a line: Potency index, ratio of doxorubicin IC50 to compound IC50 for antiproliferative activity against human K562/ADR cells. Format: functional.

For `COc1cc([C@@H]2c3cc4c(cc3[C@@H](O[C@@H]3O[C@@H]5CO[C@@H](C)O[C@H]5[C@H](O)[C@H]3O)[C@H]3COC(=O)[C@H]23)OCO4)cc(OC)c1O` [ETOPOSIDE], the concentration for half-maximal inhibition (IC50) (as a rule, the concentration that gives 50% inhibition) in assay [1] turned out to be 345 nM; in assay [2], 2210 nM. The “Ratio IC50” value in the assay on K562 is on record as 6.408.
In the case of `COc1cc([C@@H]2c3cc4c(cc3[C@H](OC(=O)c3cnn(C)c3)[C@H]3COC(=O)[C@H]23)OCO4)cc(OC)c1OC`, the values for the IC50 in assay [1] and in assay [2] were 52 nM and 139 nM, respectively. Also, the “Ratio IC50” value in the assay on K562 is 2.673.
As to `COc1cc([C@@H]2c3cc4c(cc3[C@H](OC(=O)c3cc5ccccc5s3)[C@H]3COC(=O)[C@H]23)OCO4)cc(OC)c1OC`, the 50% inhibitory concentration (IC50) in assay [1] came to 184 nM; in assay [2] it was 466 nM. Besides, the “Ratio IC50” value with K562 was determined as 2.532.
With `COc1cc([C@@H]2c3cc4c(cc3[C@H](OC(=O)c3nn(C)c5ccccc35)[C@H]3COC(=O)[C@H]23)OCO4)cc(OC)c1OC`, the IC50 in assay [1] was 47 nM; in assay [2] it was 115 nM. Also, the “Ratio IC50” value in the assay with K562 is recorded as 2.446.
Take `COc1cc([C@@H]2c3cc4c(cc3[C@H](OC(=O)c3nccc5ccccc35)[C@H]3COC(=O)[C@H]23)OCO4)cc(OC)c1OC`: the values for the IC50 in assay [1] and in assay [2] were 64 nM and 177 nM, respectively. Also, the “Ratio IC50” value with K562 was 2.765.
As to `COc1cc([C@@H]2c3cc4c(cc3[C@H](OC(=O)c3ccc5nc(C)ccc5c3)[C@H]3COC(=O)[C@H]23)OCO4)cc(OC)c1OC`, the IC50 in assay [1] worked out at 64 nM; in assay [2] it was 61 nM. Besides, in the assay with K562, the “Ratio IC50” value stood at 0.953.
As to `COc1cc([C@@H]2c3cc4c(cc3[C@H](OC(=O)c3cn(C)cn3)[C@H]3COC(=O)[C@H]23)OCO4)cc(OC)c1OC`, the half-maximal inhibitory concentration (IC50) in assay [1] stood at 79 nM; in assay [2] it was 858 nM. The “Ratio IC50” value with K562 is 10.86.
As for `COc1cc([C@@H]2c3cc4c(cc3[C@H](OC(=O)c3cc(C)on3)[C@H]3COC(=O)[C@H]23)OCO4)cc(OC)c1OC`, the half-maximal inhibitory concentration (IC50) stood at 25 nM in assay [1] and 52 nM in assay [2]. The “Ratio IC50” value in the assay on K562 is 2.08.
Take `COc1cc([C@@H]2c3cc4c(cc3[C@H](OC(=O)c3cnc5ccccc5n3)[C@H]3COC(=O)[C@H]23)OCO4)cc(OC)c1OC`: the results for the “Ratio IC50” value (in assay [3]; in the assay with K562; in assay [4]) were 65.029, 1.545 and 552.323, respectively. Besides, the half-maximal inhibitory concentration (IC50) in assay [1] was found to be 22 nM; in assay [2], 34 nM.
Turning to `COc1cc([C@@H]2c3cc4c(cc3[C@H](OC(=O)c3cscn3)[C@H]3COC(=O)[C@H]23)OCO4)cc(OC)c1OC`, the values for the IC50 in assay [1] and in assay [2] were 35 nM and 74 nM, respectively. The “Ratio IC50” value with K562 is reported as 2.114.
Taken in the same sequence, the figures for `COc1cccc2c1C(=O)c1c(O)c3c(c(O)c1C2=O)C[C@@](O)(C(=O)CO)C[C@@H]3O[C@H]1C[C@H](N)[C@H](O)[C@H](C)O1` [DOXORUBICIN] were 220 nM, 18800 nM and 85.359.
With `COc1cc([C@@H]2c3cc4c(cc3[C@H](OC(=O)c3cn(C5CC5)c5cc(Cl)c(F)cc5c3=O)[C@H]3COC(=O)[C@H]23)OCO4)cc(OC)c1OC`, the half-inhibitory concentration (IC50) was 305 nM in assay [1] and 550 nM in assay [2]. For the same molecule, in the assay with K562, the “Ratio IC50” value amounted to 1.803.
